Data as given in US7608724B2, “Antibacterial and/or antiprotozoal nitromidazole derivative compounds with urease inhibitor activity, process for preparing these compounds and use in pharmaceutical compositions and medicines” (EMS S.A., priority 2003, dated 2009).

Columns and labels:
urease = assay: Urease inhibiting test (phenol red, formation of ammonium from urea); format: biochemical; conditions: molar concentration of 30 nM
Procedure: Urease inhibition is evaluated by the assay based on RUÍZ-HERRERA, J; GONZALEZ, L. A (1969) and has the objective to verify in the visible spectra, by using phenol red as indicator, the formation of ammonium from urea according to the following reaction: […]

[1] = test system: Salmonella typhimurium T-100 strain; assay: Ames Test without metabolic activation (−S9), mutagenic activity; format: cell-based; conditions: for revertant colonies per plate (mean ± standard deviation): −S9, T-100 strain; for mutagenic rate (RM): −S9, positive response ≧2
Procedure: The mutagenic activity of the compounds were evaluated by The Ames Test without metabolic activation (−S9), with Salmonella typhimurium T-100 strain. The test is based in the fact that indicating S. typhimurium strains are sensitive to substances capable of inducing different kinds of mutation. In the presence of mutagenic agents, these strains revert the character of histidine auxotrophic synthesis, and start forming colonies in a medium were this aminoacid is absent. The mutagenic activity of a compound as its concentration function is established by counting the number of colonies per plate.
The final data obtained were analyzed by using Salanal software (Salmonella Assay Analysis) Version 1.0 from Research Triangle Institute, RTP, North Carolina, USA. This software allows to evaluate the dose-answer response by performing an analysis of variance (ANOVA f-test) between the mean revertants number in the different tested concentrations (doses) and the negative control, followed by a linear regression. […] The slope of the linear part of response-dosage curve is also furnished by the program and it corresponds to the number of revertants induced per mg of the sample analyzed.
MR is calculated by the following equation: […]

Structure (SMILES): Cc1ncc([N+](=O)[O-])n1CCOC(=O)CCC(=O)NC(=S)NC(=O)CCC(=O)OCCn1c([N+](=O)[O-])cnc1C [Example 5, Bis[2-(2-methyl-5-nitro-1H-imidazol-1-yl)ethyl]4,4′[(thioxomethylene)diimine]bis(4-oxobutanoate)]
- Urease inhibiting percentage (urease; 1 minute): 74%
- Urease inhibiting percentage (urease; 2 minutes): 67%
- Urease inhibiting percentage (urease; 3 minutes): 65%
- revertant colonies per plate (mean ± standard deviation) ([1]; 2.9 (mM)/plate): 162 ± 29 colonies per plate
- mutagenic rate (RM) ([1]; 2.9 (mM)/plate): RM = 1.3
- revertant colonies per plate (mean ± standard deviation) ([1]; 14.6 (mM)/plate): 316 ± 19 colonies per plate
- mutagenic rate (RM) ([1]; 14.6 (mM)/plate): RM = 2.5
- revertant colonies per plate (mean ± standard deviation) ([1]; 29.2 (mM)/plate): 606 ± 94 colonies per plate
- mutagenic rate (RM) ([1]; 29.2 (mM)/plate): RM = 4.8
- revertant colonies per plate (mean ± standard deviation) ([1]; 58.4 (mM)/plate): 1095 ± 100 colonies per plate
- mutagenic rate (RM) ([1]; 58.4 (mM)/plate): RM = 8.7
- revertant colonies per plate (mean ± standard deviation) ([1]; 116.9 (mM)/plate): 1582 ± 79 colonies per plate
- mutagenic rate (RM) ([1]; 116.9 (mM)/plate): RM = 12.5
- mutagenic activity compared with metronidazole parent drug or its monosuccinate ester (example 1) ([1]; FIG. 1, from table 1): very inferior

Structure (SMILES): Cc1ncc([N+](=O)[O-])n1CCO [Metronidazole, 2-(2-methyl-5-nitro-1H-imidazol-1-yl)ethanol]
- Urease inhibiting percentage (urease; 1 minute): 6%
- Urease inhibiting percentage (urease; 2 minutes): 7%
- Urease inhibiting percentage (urease; 3 minutes): 7%

Structure (SMILES): NC(N)=S [Tiourea, thiourea]
- Urease inhibiting percentage (urease; 1 minute): 23%
- Urease inhibiting percentage (urease; 2 minutes): 16%
- Urease inhibiting percentage (urease; 3 minutes): 17%
